Legend:
HBV [1] = assay: Anti-HBV activity, HepG2.2.15 cell line, HBV DNA from secreted virions by realtime PCR; assay type: cell-based, Hepatitis B virus; conditions: HepG2.2.15 cells, 6 days of treatment
HBV [2] = assay: Anti-HBV activity, HepG2.117 cell line (Tet-off), intracellular HBV DNA by realtime PCR; assay type: cell-based, Hepatitis B virus; conditions: HepG2.117 cells, 3 days of treatment
HepG2 cells = assay: Cytotoxicity in HepG2 cells, Resazurin assay; assay type: cell-based; conditions: incubated for 4 days, Resazurin viability
[3] = Cytotoxicity in HepG2 cells, Resazurin assay; assay type: cell-based; conditions: human, incubated for 4 days, Resazurin viability
[4] = Hepatitis B virus, HepG2.2.15, 144 h
[5] = Hepatitis B virus, HepG2.117, 72 h

Compound	EC50 (HBV [1]) [nM]	EC50 (HBV [2]) [nM]	CC50 (HepG2 cells) [nM]	EC50 (HBV [1]; [4]) [nM]	EC50 (HBV [2]; [5]) [nM]	CC50 at 4 days [3] [nM]
Cc1cc(NC(=O)c2cc(S(=O)(=O)NC3(C)CCOC3)sc2C)ccc1F (racemic) [Compound 16a, N-(4-fluoro-3-methyl-phenyl)-2-methyl-5-[(3-methyltetrahydrofuran-3yl)sulfamoyl]thiophene-3-carboxamide]	75	87	> 25000			
Cc1cc(NC(=O)c2cc(S(=O)(=O)NC3(C)CCOC3)sc2C)ccc1F (racemic) [Compound 16b, N-(4-fluoro-3-methyl-phenyl)-2-methyl-5-[(3-methyltetrahydrofuran-3yl)sulfamoyl]thiophene-3-carboxamide]	28	26	> 25000			
Cc1sc(S(=O)(=O)NC2(C)COC2)cc1C(=O)Nc1ccc(F)c(Cl)c1 [Compound 28, N-(3-Chloro-4-fluorophenyl)-2-methyl-5-[(3-methyloxetan-3-yl)-sulfamoyl]thiophene-3-carboxamide]				34	41	> 25000
Cc1sc(S(=O)(=O)NC2(C)COC2)cc1C(=O)Nc1ccc(F)c(Br)c1 [Compound 29, N-(3-Bromo-4-fluorophenyl)-2-methyl-5-[(3-methyloxetan-3-yl)-sulfamoyl]thiophene-3-carboxamide]				120	120	13200
COC(=O)C(C)(C)NS(=O)(=O)c1cc(C(=O)Nc2ccc(F)c(F)c2)c(C)s1 [Compound 30, Methyl N-({4-[(3,4-difluorophenyl)carbamoyl]-5-methylthiophen-2-yl}sulfonyl)-2-methylalaninate]				> 1000	790	> 25000
COC(=O)C(C)(C)NS(=O)(=O)c1cc(C(=O)Nc2ccc(F)c(C)c2)c(C)s1 [Compound 31, Methyl N-({4-[(4-fluoro-3-methylphenyl)carbamoyl]-5-methylthiophen-2-yl}sulfonyl)-2-methylalaninate]				520	170	> 25000
Cc1sc(S(=O)(=O)NC(C)(C)C(N)=O)cc1C(=O)Nc1ccc(F)c(F)c1 [Compound 32, 5-[(2-Amino-1,1-dimethyl-2-oxoethyl)sulfamoyl]-N-(3,4-difluorophenyl)-2-methylthiophene-3-carboxamide]				220	300	> 25000
Cc1cc(NC(=O)c2cc(S(=O)(=O)NC(C)(C)C(N)=O)sc2C)ccc1F [Compound 33, 5-[(2-Amino-1,1-dimethyl-2-oxoethyl)sulfamoyl]-N-(4-fluoro-3-methylphenyl)-2-methylthiophene-3-carboxamide]				140	130	> 25000
Cc1sc(S(=O)(=O)NC2(C(F)(F)F)CC2)cc1C(=O)Nc1ccc(F)c(F)c1 [Compound 34, N-(3,4-Difluorophenyl)-2-methyl-5-{[1-(trifluoromethyl)cyclopropyl]-sulfamoyl}thiophene-3-carboxamide]				100	130	17700
Cc1cc(NC(=O)c2cc(S(=O)(=O)NC3(C(F)(F)F)CC3)sc2C)ccc1F [Compound 35, N-(4-Fluoro-3-methylphenyl)-2-methyl-5-{[1-(trifluoromethyl)cyclo-propyl]sulfamoyl}thiophene-3-carboxamide]				60	40	> 25000
Cc1sc(S(=O)(=O)N[C@H](C)C(F)(F)F)cc1C(=O)Nc1cc(F)c(F)c(Cl)c1 [Compound 36, N-(3-Chloro-4,5-difluorophenyl)-2-methyl-5-{[(1R)-2,2,2-trifluoro-1-methylethyl]sulfamoyl}thiophene-3-carboxamide]				140	160	7100
Cc1sc(S(=O)(=O)N[C@@H](C)C(F)(F)F)cc1C(=O)Nc1cc(F)c(F)c(Cl)c1 [Compound 37, N-(3-Chloro-4,5-difluorophenyl)-2-methyl-5-{[(1S)-2,2,2-trifluoro-1-methylethyl]sulfamoyl}thiophene-3-carboxamide]				160	220	8200
Cc1sc(S(=O)(=O)N[C@H](C)C(F)(F)F)cc1C(=O)Nc1ccc(F)c(Cl)c1 [Compound 38, N-(3-Chloro-4-fluorophenyl)-2-methyl-5-{[(1R)-2,2,2-trifluoro-1-methylethyl]sulfamoyl}thiophene-3-carboxamide]				40	80	14400
Cc1cc(NC(=O)c2cc(S(=O)(=O)N[C@H](C)C(F)(F)F)sc2C)ccc1F [Compound 39, N-(4-Fluoro-3-methylphenyl)-2-methyl-5-{[(1R)-2,2,2-trifluoro-1-methylethyl]sulfamoyl}thiophene-3-carboxamide]				70	60	> 25000
Cc1sc(S(=O)(=O)NC(C)(C)C(F)(F)F)cc1C(=O)Nc1cccc(C(F)(F)F)c1 [Compound 42, 2-methyl-5-[(2,2,2-trifluoro-1,1-dimethyl-ethyl)sulfamoyl]-N-[3-(trifluoromethyl)phenyl]thiophene-3-carboxamide]				530	> 1000	16900
Cc1sc(S(=O)(=O)NC(CF)CF)cc1C(=O)Nc1ccc(F)c(C#N)c1 [Compound 43, N-(3-cyano-4-fluoro-phenyl)-5-[[2-fluoro-1-(fluoromethyl)ethyl]sulfamoyl]-2-methyl-thiophene-3-carboxamide]				330	670	> 25000
Cc1cc(NC(=O)c2cc(S(=O)(=O)NC3(C)COC3)sc2C)cc(C#N)c1F [Compound 44, N-(3-cyano-4-fluoro-5-methyl-phenyl)-2-methyl-5-[(3-methyloxetan-3-yl)sulfamoyl]thiophene-3-carboxamide]				820	450	> 25000
Cc1sc(S(=O)(=O)NC(C)(C)C(F)(F)F)cc1C(=O)Nc1ccc(F)c(C#N)c1 [Compound 45, N-(3-cyano-4-fluoro-phenyl)-2-methyl-5-[(2,2,2-trifluoro-1,1-dimethyl-ethyl)sulfamoyl]thiophene-3-carboxamide]				280	420	> 25000
Cc1sc(S(=O)(=O)N[C@@H](C)C(F)(F)F)cc1C(=O)Nc1ccc(F)c(C#N)c1 [Compound 46, N-(3-cyano-4-fluoro-phenyl)-2-methyl-5-[[(1S)-2,2,2-trifluoro-1-methyl-ethyl]sulfamoyl]thiophene-3-carboxamide]				400	420	> 25000
Cc1sc(S(=O)(=O)N[C@@H](C)C(C)(F)F)cc1C(=O)Nc1ccc(F)c(F)c1 [Compound 47, 5-[[(1S)-2,2-difluoro-1-methyl-propyl]sulfamoyl]-N-(3,4-difluorophenyl)-2-methyl-thiophene-3-carboxamide]				160	340	14300
Cc1sc(S(=O)(=O)N[C@H](C)C(F)(F)F)cc1C(=O)Nc1ccc(F)c(Br)c1 [Compound 48, N-(3-bromo-4-fluoro-phenyl)-2-methyl-5-[[(1R)-2,2,2-trifluoro-1-methyl-ethyl]sulfamoyl]thiophene-3-carboxamide]				160	280	7730
Cc1sc(S(=O)(=O)NC2(C(F)(F)F)CCOC2)cc1C(=O)Nc1ccc(F)c(F)c1 (stereo not drawn) [Compound 49, N-(3,4-difluorophenyl)-2-methyl-5-[[3-(trifluoromethyl)tetrahydrofuran-3-yl]sulfamoyl]thiophene-3-carboxamide]				290	270	> 25000
Cc1sc(S(=O)(=O)NC(C)(C)C(F)(F)F)cc1C(=O)Nc1ccc(F)c(F)c1 [Compound 50, N-(3,4-difluorophenyl)-2-methyl-5-[(2,2,2-trifluoro-1,1-dimethyl-ethyl)sulfamoyl]thiophene-3-carboxamide]				140	190	> 25000
Cc1sc(S(=O)(=O)N[C@H](C)C(F)(F)F)cc1C(=O)Nc1ccc(F)c(C#N)c1 [Compound 51, N-(3-cyano-4-fluoro-phenyl)-2-methyl-5-[[(1R)-2,2,2-trifluoro-1-methyl-ethyl]sulfamoyl]thiophene-3-carboxamide]				250	170	> 25000
Cc1sc(S(=O)(=O)NC(CF)CF)cc1C(=O)Nc1ccc(F)c(F)c1 [Compound 52, N-(3,4-difluorophenyl)-5-[[2-fluoro-1-(fluoromethyl)ethyl]sulfamoyl]-2-meth thiophene-3-carboxamide]				170	170	> 25000
Cc1sc(S(=O)(=O)NC2(C(F)(F)F)CC2)cc1C(=O)Nc1ccc(F)c(C#N)c1 [Compound 53, N-(3-cyano-4-fluoro-phenyl)-2-methyl-5-[[1-(trifluoromethyl)cyclo-propyl]sulfamoyl]thiophene-3-carboxamide]				120	140	13700
Cc1sc(S(=O)(=O)N[C@H](C)C(C)(F)F)cc1C(=O)Nc1ccc(F)c(F)c1 [Compound 55, 5-[[(1R)-2,2-difluoro-1-methyl-propyl]sulfamoyl]-N-(3,4-difluorophenyl)-2-methyl-thiophene-3-carboxamide]				32	90	14600
Cc1sc(S(=O)(=O)N[C@H](C)C(F)(F)F)cc1C(=O)Nc1ccc(F)c(F)c1 [Compound 56, N-(3,4-difluorophenyl)-2-methyl-5-[[(1R)-2,2,2-trifluoro-1-methyl-ethyl]sulfamoyl]thiophene-3-carboxamide]				130	70	14900

Reference: patent US10160743B2, “Sulphamoylthiophenamide derivatives and the use thereof as medicaments for the treatment of hepatitis B” (Janssen Sciences Ireland UC, priority 2013, dated 2018)
